Assays:
[1] = target: T1, Récepteur glucocorticoïde du thymus de rat (Rattus norvegicus, UniProt P06536); assay: Relative binding affinity, competition with tritiated dexamethasone, rat thymus cytosol; conditions: reference hormone dexaméthasone
T1 construct: les thymus sont prélevés et homogénéisés à 0°C; from tissue; host or cells: thymus cytosol (105 000 g supernatant) of adrenalectomised male Sprague Dawley rats
T1 sequence (P06536 1-795): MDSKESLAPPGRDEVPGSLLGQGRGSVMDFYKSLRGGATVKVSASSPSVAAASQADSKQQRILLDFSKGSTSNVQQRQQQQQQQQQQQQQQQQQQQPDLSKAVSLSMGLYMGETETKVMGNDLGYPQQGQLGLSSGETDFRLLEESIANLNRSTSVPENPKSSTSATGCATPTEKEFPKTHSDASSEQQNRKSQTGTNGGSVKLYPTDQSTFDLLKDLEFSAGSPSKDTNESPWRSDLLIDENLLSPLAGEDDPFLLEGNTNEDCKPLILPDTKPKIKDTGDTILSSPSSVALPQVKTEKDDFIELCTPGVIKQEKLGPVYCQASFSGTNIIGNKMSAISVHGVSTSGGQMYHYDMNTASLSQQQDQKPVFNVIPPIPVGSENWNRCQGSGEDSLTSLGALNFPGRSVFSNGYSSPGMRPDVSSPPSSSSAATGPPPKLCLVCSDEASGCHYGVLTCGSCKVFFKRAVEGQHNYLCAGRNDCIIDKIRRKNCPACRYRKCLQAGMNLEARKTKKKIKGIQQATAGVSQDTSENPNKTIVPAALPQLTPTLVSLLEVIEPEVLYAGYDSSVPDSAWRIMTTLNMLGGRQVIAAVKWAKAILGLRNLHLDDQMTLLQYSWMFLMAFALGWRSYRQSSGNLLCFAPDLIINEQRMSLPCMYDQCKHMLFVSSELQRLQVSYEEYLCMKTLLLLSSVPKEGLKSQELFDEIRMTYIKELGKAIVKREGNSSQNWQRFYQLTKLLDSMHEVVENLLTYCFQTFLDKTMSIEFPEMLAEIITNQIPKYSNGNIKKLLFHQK
Procedure: Récepteur glucocorticoïde du thymus de rat :
Des rats mâles Sprague Dawley EOPS de 160 à 200 g sont surrénalectomisés. 4 à 8 jours après cette ablation, les animaux sont sacrifiés, et les thymus sont prélevés et homogénéisés à 0°C dans un tampon Tris 10mM, saccharose 0,25M, dithiothreitol 2mM, HCl pH 7,4, à l'aide d'un Potter polyté-trafluoroéthylène-verre (1 g de tissu pour 10 ml de TS). L'homogénat est ensuite ultracentrifugé (105 000 g x 90 mn) à 0°C. Des aliquotes du surnageant ainsi obtenu, sont incubées à 0°C pendant un temps (t) avec une concentration constante (T) de dexaméthasone tritiée en présence de concentrations croissantes (O - 2 500.10⁻⁹M) soit de dexaméthasone froide, soit du produit froid à tester. La concentration de la dexaméthasone tritiée liée (B) est ensuite mesurée dans chaque incubat par la technique d'adsorption au charbon dextran.
(§1) Calcul de l'affinité relative de liaison:
(§2) Le calcul de l'affinité relative de liaison (ARL) est identique pour tous les récepteurs.
(§3) On trace les 2 courbes suivantes : le pourcentage de l'hormone tritiée liée (B)/(T) [formula] en fonction du logarithme de la concentration de l'hormone de référence froide et (B)/(T) [formula] en en fonction du logarithme de la concentration du produit froid testé.
(§4) On détermine la droite d'équation I₅₀ = ( (B)/(T) [formula] max + (B)/(T) [formula] min)/2. (B)/(T) [formula] max = Pourcentage de l'hormone tritiée liée pour une incubation de cette hormone tritiée à la concentration (T). (B)/(T) [formula] min = Pourcentage de l'hormone tritiée liée pour une incubation de cette hormone tritiée à la concentration (T) en présence d'un grand excès d'hormone froide (2500.10⁻⁹M).
(§5) Les intersections de la droite I₅₀ et des courbes permettent d'évaluer les concentrations de l'hormone de référence froide (CH) et du produit froid testé (CX) qui inhibent de 50% la liaison de l'hormone tritiée sur le récepteur.
(§6) L'affinité relative de liaison (ARL) du produit testé est déterminée par l'équation [formula]

[2] = target: T2, Récepteur progestogène de l'utérus de lapine (Oryctolagus cuniculus, UniProt P06186); assay: Relative binding affinity, competition with tritiated Product R, rabbit uterus cytosol; conditions: reference hormone progestérone
T2 construct: les utérus sont prélevés, pesés et homogénéisés à 0°C; from tissue; host or cells: uterus cytosol (105 000 g supernatant) of estradiol-primed immature female rabbits
T2 sequence (P06186 1-930): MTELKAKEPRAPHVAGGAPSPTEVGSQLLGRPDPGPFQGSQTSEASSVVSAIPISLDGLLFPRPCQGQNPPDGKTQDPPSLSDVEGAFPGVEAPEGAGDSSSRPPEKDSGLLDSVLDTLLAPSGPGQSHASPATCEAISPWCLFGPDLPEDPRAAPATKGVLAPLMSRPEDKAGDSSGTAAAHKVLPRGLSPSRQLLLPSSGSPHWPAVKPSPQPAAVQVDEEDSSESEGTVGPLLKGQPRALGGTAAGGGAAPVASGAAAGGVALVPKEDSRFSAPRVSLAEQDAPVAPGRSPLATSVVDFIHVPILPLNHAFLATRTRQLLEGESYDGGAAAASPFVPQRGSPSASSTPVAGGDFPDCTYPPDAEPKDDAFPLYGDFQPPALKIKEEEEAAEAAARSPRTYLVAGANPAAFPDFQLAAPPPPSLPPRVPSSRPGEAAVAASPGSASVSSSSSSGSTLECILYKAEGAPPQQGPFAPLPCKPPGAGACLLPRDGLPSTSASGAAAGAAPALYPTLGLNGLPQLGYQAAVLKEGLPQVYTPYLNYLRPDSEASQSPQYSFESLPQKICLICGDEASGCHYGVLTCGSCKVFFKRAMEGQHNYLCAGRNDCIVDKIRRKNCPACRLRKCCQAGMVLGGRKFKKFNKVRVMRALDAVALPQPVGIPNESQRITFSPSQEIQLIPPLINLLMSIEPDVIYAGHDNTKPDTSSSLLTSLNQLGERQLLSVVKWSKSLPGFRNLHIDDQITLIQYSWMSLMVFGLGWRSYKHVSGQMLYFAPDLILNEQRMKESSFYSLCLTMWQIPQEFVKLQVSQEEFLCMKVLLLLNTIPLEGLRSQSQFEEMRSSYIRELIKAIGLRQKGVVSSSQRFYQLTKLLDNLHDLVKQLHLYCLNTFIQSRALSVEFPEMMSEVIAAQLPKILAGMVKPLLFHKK
Procedure: Récepteur progestogène de l'utérus de lapine :
Des lapines impubères d'environ 1 kg reçoivent une application cutanée de 25 microgrammes d'estradiol. 5 jours après ce traitement, les animaux sont sacrifiés, les utérus sont prélevés, pesés et homogénéisés à 0°C, à l'aide d'un Potter teflon-verre dans une solution tamponnée TS (Tris 10mM, saccharose 0,25 M, HCl pH 7,4) (1 g de tissu pour 50 ml de TS). L'homogénat est ensuite ultracentrifugé (105 000 g x 90 mn) à 0°C. Des aliquotes du surnageant ainsi obtenu, sont incubées à 0°C pendant un temps t, avec une concentration constante (T) de Produit R tritié (17,21-diméthyl 19-nor 4,9-pregnadiène-3,20-dione) en présence de concentrations croissantes (0 - 2 500. 10⁻⁹M) soit de R froid, soit de progestérone froide, soit du produit froid à tester. La concentration de R tritié lié (B) est ensuite mesurée dans chaque incubat par la technique d'adsorption au charbon dextran.
as §1, §2, §3, §4, §5, §6

| Structure (SMILES) | affinité relative de liaison (ARL) Glucocorticoïde ([1]; incubation 1H at 0°C) | affinité relative de liaison (ARL) Glucocorticoïde ([1]; incubation 24H at 0°C) | affinité relative de liaison (ARL) Progestogène ([2]; incubation 2H at 0°C) | affinité relative de liaison (ARL) Progestogène ([2]; incubation 24H at 0°C) |
| --- | --- | --- | --- | --- |
| CSc1ccc([C@H]2C[C@@]3(C)[C@@H](CC[C@@]3(O)C#CCF)[C@@H]3CCC4=CC(=O)CCC4=C32)cc1 [Exemple 3, 17alpha-(3-fluoro 1-propynyl) 17béta-hydroxy 11béta-[4-(méthylthio)phényl] estra-4,9-dièn-3-one] | 142 | 169 | 55 | 225 |
| CSc1ccc([C@H]2C[C@@]3(C)[C@@H](CC[C@@]3(O)C#CCCl)[C@@H]3CCC4=CC(=O)CCC4=C32)cc1 [Exemple 4, 17alpha-(3-chloro 1-propynyl) 17béta-hydroxy 11béta-[4-(méthylthio)phényl] estra-4,9-dièn-3-one] | 156 | 139 | 70 | 351 |
| CSc1ccc([C@H]2C[C@@]3(C)[C@@H](CC[C@@]3(O)C#CCO)[C@@H]3CCC4=CC(=O)CCC4=C32)cc1 [Exemple 1, 17béta-hydroxy 17alpha-(3-hydroxy 1-propynyl) 11béta-[4-(méthylthio)phényl] estra-4,9-dien-3-one] | 133 | 99 | 72 | 86 |
